Assay results from patent publication US12370193B2, “Method of inhibiting TREM-1” (UNIVERSITY OF FLORIDA RESEARCH FOUNDATION, INCORPORATED, priority 2019, dated 2025).

Legend:
[1] = tested on: RORβ; assay: Gal4-RORβ co-transfection promoter-reporter assay; format: cell-based; conditions: Gal4 assay format
Protocol: (§1) Reporter gene assays: Twenty-four hours before transfection, HEK293T cells were plated in 96-well plates at a density of 15×10^3 cells per well. UAS:luciferase reporter and Ga14-RORa, Gal4-RORb, Gal4-RORγ, Gal4-LXRα, or Gal4 PPARγ DNA co-transfections were performed using X-tremeGENE 9 (Roche). Twenty-four hours after transfection, the cells were treated with vehicle or compound. Twenty-four hours after treatment, the luciferase activity was measured using the Dual-Glo luciferase assay system (Promega). Results were analyzed using GraphPad Prism software.

[2] = target: T1, LXRα (Homo sapiens, UniProt Q13133); assay: Gal4-LXRα co-transfection promoter-reporter assay; format: cell-based; conditions: HEK293T cells, read-out: LXR agonist activity EC50
T1 sequence (Q13133 209-447 limits assumed): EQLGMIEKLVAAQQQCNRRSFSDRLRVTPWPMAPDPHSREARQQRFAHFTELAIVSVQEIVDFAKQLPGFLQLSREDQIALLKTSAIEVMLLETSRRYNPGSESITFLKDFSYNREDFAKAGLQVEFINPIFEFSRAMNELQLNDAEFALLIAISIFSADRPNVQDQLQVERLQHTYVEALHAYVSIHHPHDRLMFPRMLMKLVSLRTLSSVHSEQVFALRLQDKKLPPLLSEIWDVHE
Text: FIGS. 1A to 1E: Pan modulator with poly-pharmacology. […] FIG. 1D is a graph showing PPARγ target genes (aP2 and CD36) expression in OP9 cells with and without MDI (IBMX, dexamethasone, insulin) treatment. […] SR1903 is represented as orange sticks while PPARγ, RORγ, and LXRβ are depicted as blue ribbons respectively. Specific residues driving the interaction labelled and shown as sticks as well. […] FIG. 1F are graphs showing RORγ target genes (IL17A and IL17F) expression in EL4 cells.
as §1

[3] = tested on: EL4 cells; assay: RORγ target gene expression in PMA/ionomycin stimulated EL4 cells; format: cell-based; conditions: PMA and ionomycin, compound at 10 μM
Text: FIG. 1D is a graph showing PPARγ target genes (aP2 and CD36) expression in OP9 cells with and without MDI (IBMX, dexamethasone, insulin) treatment. […] Specific residues driving the interaction labelled and shown as sticks as well. […] Quantitative RT-PCR: Total RNA was extracted from EL4 or RAW264.7 cells using RNeasy Plus Micro Kit (Qiagen) and the RNA was reverse transcribed using the ABI reverse transcription kit (Applied Biosystems/Thermo Fisher Scientific, Waltham MA). Quantitative PCR was performed with a 7900HT Fast Real Time PCR System (Applied Biosystems) using SYBR green (Roche).

[4] = tested on: TREM-1; assay: TREM-1 gene expression in LPS-stimulated RAW264.7 cells (RNA sequencing, qPCR); format: cell-based, mouse
Protocol: (§2) FIG. 2B are graphs showing TREM-1 gene expression by q-PCR. […] All experiments were performed with 3 biological replicates and the median value of TREM-1 fluorescence was represented by the graph on the bottom.
Quantitative RT-PCR: Total RNA was extracted from EL4 or RAW264.7 cells using RNeasy Plus Micro Kit (Qiagen) and the RNA was reverse transcribed using the ABI reverse transcription kit (Applied Biosystems/Thermo Fisher Scientific, Waltham MA). Quantitative PCR was performed with a 7900HT Fast Real Time PCR System (Applied Biosystems) using SYBR green (Roche).
mRNA sequencing analysis: RAW264.7 cells RNA extraction protocol for RNA seq was derived from Qiagen Kit-74106. Total RNA was quantified using the Qubit 2.0 Fluorometer (Invitrogen, Carlsbad, CA) and run on the Agilent 2100 Bioanalyzer (Agilent Technologies, Santa Clara, CA) for quality assessment. RNA samples of good quality with RNA Integrity Number (RIN)>8.0 were further processed. A RNase-free working environment was maintained and RNase-free tips, Eppendorf tubes and plates were utilized for the subsequent steps. Messenger RNA was selectively isolated from total RNA (300 ng input) using poly-T oligos attached to magnetic beads and converted to sequence-ready libraries using the TruSeq stranded mRNA sample prep protocol (Cat. #: RS-122-2101, Illumina, San Diego, CA). The final libraries were validated on the bioanalyzer DNA chips and qPCR quantified using primers that recognize the illumina adaptors. The libraries were then pooled at equimolar ratios, quantified using qPCR and loaded onto the NextSeq 500 flow cell at 1.8 pM final concentration. They were sequenced using the high-output, paired-end, 75-bp chemistry. Demultiplexed and quality filtered raw reads (fastq) generated from the NextSeq 500 were trimmed (adaptor sequences) using Flexbar 2.4 and aligned to the mouse reference database (mm9) using TopHat version 2.0.9 (Trapnell et al., 2009). HTseq-count version 0.6.1 was used to generate gene counts and differential gene expression analysis was performed using Deseq2 (Anders and Huber, 2010).

[5] = tested on: TREM-1; assay: TREM-1 surface expression by FACS in LPS-stimulated RAW264.7 cells; format: cell-based, mouse; conditions: 50 hr incubation
Protocol: as §2
Flow cytometry and antibodies: For the analysis of macrophage activation, RAW264.7 cells (American Type Culture Collection) were pre-incubated with 5 μM 1903 for 18 h then stimulated with 1 μg/mL LPS (Escherichia coli 0127:B8, Sigma-Aldrich (St. Louis, MO)) for 6 h. RAW264.7 cells were stained with APC conjugated anti-TREM-1 antibody (eBioscience). Cell sorting was performed using LSRII (BD Bioscience).

[6] = Pharmacokinetics in mice; format: in vivo; conditions: 20 mg/kg twice-a-day
Protocol: Compound was formulated in 10/10/80 DMSO/Tween80/Water and administered to mice at either 20 mg/kg by oral gavage or at 25 mg/kg via intraperitoneal injection. Blood was drawn at the indicated times and plasma was generated. Following solid phase extraction, drug levels were quantitated using LC-MSMS.

[7] = tested on: diet-induced obesity; assay: Diet-induced obese (DIO) mouse model; format: in vivo, DIO mice
[8] = Tolerability following chronic administration; format: in vivo
[9] = tested on: collagen-induced arthritis; assay: Collagen-induced arthritis (CIA) mouse model
Protocol: Clinical score was monitored every day after boosting during 18 days. […] The dosage of all compounds was identical in each group.
Briefly, DBA/1J mice were injected with chicken type II collagen on day 1 and then each animal received a boost injection of collagen on Day 21. Compound treatment, initiated on day 3-post boost injection, was administered intraperitoneally at 20 mg/kg twice-a-day for a total of 16 days. […] Mice: All mice were maintained in a specific pathogen-free environment in accordance with institutional protocol. […] Female DBA/1J mice were purchased from Taconic. CIA was induced in 8 weeks as previously described^40.

[10] = 22-week-old DIO mice, 14 days, 20 mg/kg
[11] = DIO mice, 20 mg/kg i.p. for 14 days

Cc1cc(CN2CCN(Cc3ccncc3)CC2)ccc1-c1ccc(C(O)(C(F)(F)F)C(F)(F)F)cc1 [SR1903, 1,1,1,3,3,3-hexafluoro-2-(2′-methyl-4′-((4-(pyridin-4-ylmethyl)piperazin-1-yl)methyl)-[1,1′-biphenyl]-4-yl)propan-2-ol]
activity on RORβ [1]: lack activity
EC50 [2]: 689 nM
IL17A expression [3]: repressed
IL17F expression [3]: repressed
LPS induction of TREM-1 gene expression (qPCR) ([4]; 26 hr exposure): significantly repressed
LPS induction of TREM-1 gene expression (qPCR) ([4]; 50 hr treatment): maintained repression
TREM1 signaling expression (RNA sequencing) ([4]; LPS-stimulated RAW264.7 cells, 10 μM compound vs DMSO-only): significantly suppressed
LPS-induced TREM1 cell surface expression [5]: completely blocked
plasma exposure relative to IC50 [6]: sufficient to have compound levels above its IC50
obesity related thymic involution [7, 10]: protected from obesity related thymic involution
thymus weight [7, 10]: increase in thymus weight
Socs3 expression in the hypothalamus ([7]; DIO mice): repressed
fasting and fed insulin levels ([7]; DIO mice): improved
fasting leptin levels ([7]; DIO mice): did not alter
food intake ([7]; DIO mice): reduced food intake
leptin resistance (leptin sensitivity test) ([7]; DIO mice): reduced
differentiation of αβTCR+CD4+ and αβTCR+CD8+ cells ([7]; DIO mice thymocytes): no effect
λδT cell differentiation ([7]; DIO mice thymocytes): increase
HDL, TAG, and FFA [7, 11]: no effect
fasting glucose levels [7, 11]: improved
glucose excursion in glucose tolerance test [7, 11]: statistically significant improvement
total cholesterol and LDL [7, 11]: reduced
body weight reduction ([7]; DIO mice, 14 days of treatment): ~15%
reduction of fat mass ([7]; DIO mice, 14 days, determined by NMR): ~17%
leptin in freely feeding mice ([7]; DIO mice, compared to vehicle): statistically reduced
tolerability [8]: very well tolerated
enlargement of the liver ([9]; CIA mice, 20 mg/kg): did not cause enlargement of the liver
thymocyte differentiation and survival ([9]; CIA mice, compared to GW3965 or T0901317): enhanced thymocyte differentiation and survival
arthritis clinical score ([9]; Day 34, 20 mg/kg i.p. twice-a-day, vehicle 13.6±2.9): 3.8±2.5
intrathymic cell number ([9]; treated mice, unlike SR2211 treated mice): enriched
